Source: publication PMC6584016, “A new lipoxygenase from the agaric fungus Agrocybe aegerita: Biochemical characterization and kinetic properties” (PLoS ONE, 2019)

Biological target: T1, AaeLOX4 (Cyclocybe aegerita, UniProt A0A4D6T4S4)
T1 construct: gene lox4; codon-optimized gene in pET28a, E. coli BL21(DE3) Gold; HisTrap and gel filtration, tag cleavage not mentioned; predicted 79 kDa
T1 sequence (A0A4D6T4S4 1-710): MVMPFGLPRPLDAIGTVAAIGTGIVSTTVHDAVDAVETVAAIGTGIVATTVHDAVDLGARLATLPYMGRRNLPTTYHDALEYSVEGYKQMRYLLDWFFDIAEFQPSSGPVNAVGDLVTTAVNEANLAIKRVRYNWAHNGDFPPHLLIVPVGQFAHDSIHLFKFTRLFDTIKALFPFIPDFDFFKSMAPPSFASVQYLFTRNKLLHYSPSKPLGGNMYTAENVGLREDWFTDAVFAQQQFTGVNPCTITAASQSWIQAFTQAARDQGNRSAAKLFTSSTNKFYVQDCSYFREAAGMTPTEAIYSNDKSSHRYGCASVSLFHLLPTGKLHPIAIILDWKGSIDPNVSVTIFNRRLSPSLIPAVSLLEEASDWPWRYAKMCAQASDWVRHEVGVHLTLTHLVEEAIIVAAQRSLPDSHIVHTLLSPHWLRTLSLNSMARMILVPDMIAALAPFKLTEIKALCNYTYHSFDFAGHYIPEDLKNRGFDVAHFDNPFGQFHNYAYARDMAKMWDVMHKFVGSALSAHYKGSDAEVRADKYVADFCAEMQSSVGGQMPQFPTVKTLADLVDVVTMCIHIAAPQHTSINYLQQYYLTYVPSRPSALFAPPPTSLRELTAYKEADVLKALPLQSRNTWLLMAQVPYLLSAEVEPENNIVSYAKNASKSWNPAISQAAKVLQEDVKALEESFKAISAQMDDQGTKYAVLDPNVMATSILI
Assay: conjugated diene formation at […] nm; Lineweaver-Burk
Format: biochemical
Conditions: 50 mM phosphate pH 7.5, 25 °C; substrate dispersed with Tween 20; 0.025-2 mM

| Km [µM] | Compound |
| --- | --- |
| 295 | CCCCC/C=C\C/C=C\CCCCCCCC(=O)O [linoleic acid] |
| 634 | CC/C=C\C/C=C\C/C=C\CCCCCCCC(=O)O [linolenic acid] |
